Converted amounts (≈) assume the structure as drawn. “And” between values parts separate entries of the source, which are not always exact repeats. Equal entries are not always repeated. Where two headings read alike, the source gives them in different places.
Experiments:
[1] = tested on: Staphylococcus aureus, MRSA (ATCC 33591); experiment: Antibacterial test (MIC), Gram-positive bacteria; format: cell-based; details: read-out: MIC
Source text: (§1) As for the Gram-negative bacteria, E. coli (ATCC 10536, ATCC 25922), Klebsiella pneumonia (ATCC 10031), Proteus vulgaris (ATCC 13315), Pseudomonas aeruginosa (ATCC 9027), and Salmonella typhimurium (ATCC 13311) were used, and as for the Gram-positive bacteria, Staphylococcus aureus, MRSA (ATCC 33591), Staphylococcus epidermidis (ATCC 12228), Streptococcus pneumonia (ATCC 6301), Mycobacterium ranae (ATCC 110), and Enterococcus faecalis (VRE, ATCC 51575) were used. The various bacteria were cultured at 37° C. for 20 to 48 hours by conventional methods, and the minimum growth inhibitory concentration (MIC, μg/ml) was determined. Each of the specimens was dissolved in a 1% DMSO solution. Furthermore, amoxicillin, clarithromycin and gentamycin were used as control drugs of antibacterial substance.

[2] = tested on: Streptococcus pneumonia (ATCC 6301); experiment: Antibacterial test (MIC), Gram-positive bacteria; format: cell-based; details: Streptococcus pneumoniae, ATCC6301
Source text: as §1

[3] = tested on: Staphylococcus epidermidis (ATCC 12228); experiment: Antibacterial test (MIC), Gram-positive bacteria; format: cell-based; details: ATCC12228, read-out: MIC
Source text: as §1

[4] = tested on: Enterococcus faecalis (VRE, ATCC 51575); experiment: Antibacterial test (MIC), Gram-positive bacteria; format: cell-based
Source text: as §1

[5] = tested on: Mycobacterium ranae (ATCC 110); experiment: Antibacterial test (MIC), Gram-positive bacteria; format: cell-based; details: ATCC110, read-out: MIC
Source text: as §1

[6] = tested on: Pseudomonas aeruginosa (ATCC 9027); experiment: Antibacterial test (MIC), Gram-negative bacteria; format: cell-based; details: ATCC9027, read-out: MIC
Source text: as §1

[7] = tested on: Helicobacter pylori standard strain ATCC 43504; experiment: Antibacterial potency test (MIC), Columbia agar medium, Pharmacological Test Example 1; format: cell-based
Protocol: A test was conducted to see whether there is a difference in the anti-Helicobacter pylori activity depending on the number of carbon atoms of the linear alkyl group for a substituent at the 4-position of the pyridine ring.
For the bacterium Helicobacter pylori, a standard strain ATCC 43504 was used to perform in vitro tests in Columbia agar medium. Each of the specimens was dissolved in a 1% DMSO solution, and the bacteria were cultured at 37° C. and pH 7.0 for 3 days. On the 4th day, the minimum growth inhibitory concentration (MIC, μg/ml) was determined.

[8] = Stability test in acidic hydrochloric acid solution (pH 2), residual ratio by HPLC; format: physicochemical; details: for Residual ratio at pH 2: pH 2 HCl, 37° C.; for Stability in acid (residual ratio at pH = 2: %): Table 8 summary, time not stated
Protocol: A test for the stability of thioether compounds (hereinafter, referred to SH-form) and sulfoxide compounds (hereinafter, referred to SO-form) at pH 2.0 was carried out. (Method) Each of the specimens produced in Examples 1 to 3 and Reference Examples 6 to 8 (sulfinyl products of Examples 1 to 3) was maintained in a solution adjusted to pH 2 with 0.5 or 1.0 mmol/L HCl (37° C.) for a predetermined time period. Subsequently, the solution was adjusted to pH 8 with triethylamine, and then an HPLC analysis was performed to calculate the residual ratio.

[9] = tested on: Helicobacter pylori bacteria (ATCC 43504); experiment: Antiulcer action and bacteria eradicating action in Helicobacter pylori-infected Mongolian gerbils; format: in vivo; details: for Number of Bacteria (average) (log CFU): gastric mucosa; for responders at 10 mg/kg / responders at 30 mg/kg: Helicobacter pylori
Protocol: Mongolian gerbils were experimentally infected with Helicobacter pylori bacteria, and the antiulcer action and the Helicobacter pylori bacteria eradicating action of the compounds of the present invention were tested.
Male Mongolian gerbils (30 to 40 g), five animals in each group, were orally inoculated with Helicobacter pylori bacteria (ATCC 43504) at 1.6×10^7 CFU/0.5 ml/mouse, and bred for one week, and then drug was administered two times a day for two weeks. Thereafter, the […] were bred for three weeks, and then the rats were fasted for 18 hours and subjected to abdominal section, followed by autopsy. The severity of gastric ulcer, the number of Helicobacter pylori bacteria in the gastric mucosa, and the antibody titer were measured.

[10] = tested on: clinically separated clarithromycin-resistant strains and amoxicillin-insensitive strains of Helicobacter pylori; experiment: Antibacterial potency (MIC) against clarithromycin-resistant and amoxicillin-insensitive strains, Pharmacological Test Example 3; format: cell-based; details: Helicobacter pylori, read-out: MIC
Protocol: A test was conducted on the antibacterial potency of the compounds of the present invention against the clarithromycin-resistant strains and amoxicillin-insensitive strains of the bacterium Helicobacter pylori.
A test was conducted on the antibacterial potency of the compounds of the present invention, using clinically separated clarithromycin-resistant strains and amoxicillin-insensitive strains of the bacterium Helicobacter pylori. For the respective strains, in vitro tests were performed in Columbia agar medium. Each of the specimens was dissolved in a 1% DMSO solution. The bacteria were cultured at 37° C. and pH 7.0 for 3 days, and on the 4th day, the minimum growth inhibitory concentration (MIC, μg/ml) was determined.

[11] = tested on: Helicobacter pylori standard strains ATCC 43504, ATCC 43629, ATCC 43570 and clinically separated strains; experiment: Anti-Helicobacter pylori activity (MIC), standard and clinically separated strains, Pharmacological Test Example 2; format: cell-based
Protocol: For the bacterium Helicobacter pylori, standard strains ATCC 43504, ATCC 43629 and ATCC 43570 were used to perform in vitro tests in Columbia agar medium. The bacteria were cultured at 37° C. and pH 7.0 for 3 days. On the 4th day, the minimum growth inhibitory concentration (MIC, μg/ml) was determined. Each of the specimens was dissolved in a 1% DMSO solution. Furthermore, amoxicillin and clarithromycin were used as control drugs of antibacterial substance. Further, the compound described in the article of Thomas C. Kuehler (J. Med.

[12] = tested on: gastric acid secretion; experiment: Gastric acid secretion inhibiting action, pylorus ligation in rats; format: in vivo, SD rats; details: 30 mg/kg to the duodenum, 4 hours after pylorus ligation, average
Protocol: The gastric acid secretion inhibiting action of the compounds of the present invention was tested. A group of five animals of male SD rats (about 200 g) were used, and the medicaments were respectively dissolved in 0.5% CMC and were all administered to the duodenum respectively at 30 mg/kg. The rats were fasted overnight from the day before the administration of the test substance to the point of administration, and pylorus ligation was performed.

[13] = ATCC43504, 72 h, ATCC 43504, 37° C., pH 7.0, 3 days, read-out: MIC
[14] = ATCC43504, Table 8 summary, strain not stated, read-out: Anti-HP activity (MIC: μg/mL)
[15] = 30 mg/kg, two times a day for two weeks
[16] = ATCC43504, 336 h, 30 mg/kg, two times a day for two weeks, read-out: Eradication rate (%)
[17] = Clinically separated strain PT1045482
[18] = Clinically separated strain PT1045483
[19] = Clinically separated strain PT1045484
[20] = ATCC43504, Table 8, amount of administration (mg) 30, read-out: HP eradication based on Mongolian gerbil infection model: Eradication rate (%)

SMILES | MIC [1] [µg/mL] | MIC [2] [µg/mL] | MIC [3] [µg/mL] | MIC [4] [µg/mL] | MIC [5] [µg/mL] | MIC [6] [µg/mL] | MIC [7, 13] [µg/mL] | MIC [7, 14] [µg/mL] | Residual ratio at pH 2 ([8]; 0 min) [%] | Residual ratio at pH 2 ([8]; 30 min) [%] | Residual ratio at pH 2 ([8]; 2 hours) [%] | Stability in acid (residual ratio at pH = 2: %) [8] [%] | Antibody titer (average) ([9]; 30 mg/kg) | Number of Bacteria (average) (log CFU) ([9]; 30 mg/kg) | Number of Ulcers discovered [9, 15] | responders at 30 mg/kg [9, 16] [%] | MIC ([10]; AMO-insensitive strain NO. 1) [µg/mL] | MIC ([10]; AMO-insensitive strain NO. 2) [µg/mL] | MIC ([10]; AMO-insensitive strain NO. 3) [µg/mL] | MIC ([10]; AMO-insensitive strain NO. 4) [µg/mL] | also measured
CCCCCOc1ccnc(CSc2nc3ccccc3[nH]2)c1C [Example 1, 2-[(4-n-pentyloxy-3-methylpyridin-2-yl)-methylthio]-1H-benzimidazole] | > 100 | > 100 | > 100 | > 100 | > 100 | > 100 | 0.1 (≈ 0.293 µM) | 0.1 (≈ 0.293 µM) | 100 | 100 | 100 | 100 | 0.05 | <3 | 0/5 | 100 | 0.06 (≈ 0.176 µM) | 0.06 (≈ 0.176 µM) | 0.06 (≈ 0.176 µM) | 0.06 (≈ 0.176 µM) | Antibody titer (average) ([9]; 10 mg/kg): 0.07; Number of Bacteria (average) (log CFU) ([9]; 10 mg/kg): <3 log CFU; Number of Ulcers discovered ([9]; 10 mg/kg, two times a day for two weeks): inhibited generation of ulcer and 0/5; responders at 10 mg/kg ([9]; ATCC43504, 336 h, 10 mg/kg, two times a day for two weeks, read-out: Eradication rate (%)): 100%; responders at 10 mg/kg ([9]; ATCC43504, Table 8, amount of administration (mg) 10, read-out: HP eradication based on Mongolian gerbil infection model: Eradication rate (%)): 100%; MIC ([10]; CAM-resistant strain NO. 1): 0.06 µg/mL (≈ 0.176 µM); MIC ([10]; CAM-resistant strain NO. 2): 0.06 µg/mL (≈ 0.176 µM); MIC ([10]; CAM-resistant strain NO. 3): 0.06 µg/mL (≈ 0.176 µM); MIC ([10]; CAM-resistant strain NO. 4): 0.06 µg/mL (≈ 0.176 µM); MIC [11, 17]: 0.1 µg/mL (≈ 0.293 µM); MIC [11, 18]: 0.06 µg/mL (≈ 0.176 µM); MIC [11, 19]: 0.06 µg/mL (≈ 0.176 µM); MIC ([11]; Standard strain ATCC 43504): 0.1 µg/mL (≈ 0.293 µM); MIC ([11]; Standard strain ATCC 43570): < 0.015 µg/mL; MIC ([11]; Standard strain ATCC 43629): 0.06 µg/mL (≈ 0.176 µM); Gastric acid secretion inhibiting action: Amount of gastric acid [12]: 57%; Gastric acid secretion inhibiting action: Amount of gastric acid secretion [12]: 82%; Gastric acid secretion inhibiting action: Total acidity [12]: 60%
CCCCCCOc1ccnc(CSc2nc3ccccc3[nH]2)c1C [Example 2, 2-[(4-n-hexyloxy-3-methylpyridin-2-yl)-methylthio]-1H-benzimidazole] | > 100 | > 100 | > 100 | > 100 | > 100 | > 100 | 0.1 (≈ 0.281 µM) | 0.1 (≈ 0.281 µM) | 100 | 100 | 100 | 100 | 0.17 | <3 | 0/5 | 100 | 0.06 (≈ 0.169 µM) | 0.12 (≈ 0.338 µM) | 0.12 (≈ 0.338 µM) | 0.12 (≈ 0.338 µM) | responders at 30 mg/kg [9, 20]: 100%; MIC ([10]; CAM-resistant strain NO. 1): 0.06 µg/mL (≈ 0.169 µM); MIC ([10]; CAM-resistant strain NO. 2): 0.06 µg/mL (≈ 0.169 µM); MIC ([10]; CAM-resistant strain NO. 3): 0.06 µg/mL (≈ 0.169 µM); MIC ([10]; CAM-resistant strain NO. 4): 0.06 µg/mL (≈ 0.169 µM); MIC [11, 17]: 0.1 µg/mL (≈ 0.281 µM); MIC [11, 18]: 0.1 µg/mL (≈ 0.281 µM); MIC [11, 19]: 0.1 µg/mL (≈ 0.281 µM); MIC ([11]; Standard strain ATCC 43504): 0.1 µg/mL (≈ 0.281 µM); MIC ([11]; Standard strain ATCC 43570): 0.03 µg/mL (≈ 0.0844 µM); MIC ([11]; Standard strain ATCC 43629): 0.1 µg/mL (≈ 0.281 µM); Gastric acid secretion inhibiting action: Amount of gastric acid [12]: 44%; Gastric acid secretion inhibiting action: Amount of gastric acid secretion [12]: 65%; Gastric acid secretion inhibiting action: Total acidity [12]: 34%
CCCCCCCOc1ccnc(CSc2nc3ccccc3[nH]2)c1C [Example 3, 2-[(4-n-heptyloxy-3-methylpyridin-2-yl)-methylthio]-1H-benzimidazole] | > 100 | > 100 | > 100 | > 100 | > 100 | > 100 | 0.1 (≈ 0.271 µM) | 0.1 (≈ 0.271 µM) | 100 | 100 | 100 | 100 | 0.22 | <3 | 0/5 | 100 | 0.12 (≈ 0.325 µM) | 0.12 (≈ 0.325 µM) | 0.12 (≈ 0.325 µM) | 0.25 (≈ 0.677 µM) | responders at 30 mg/kg [9, 20]: 100%; MIC ([10]; CAM-resistant strain NO. 1): 0.1 µg/mL (≈ 0.271 µM); MIC ([10]; CAM-resistant strain NO. 2): 0.1 µg/mL (≈ 0.271 µM); MIC ([10]; CAM-resistant strain NO. 3): 0.1 µg/mL (≈ 0.271 µM); MIC ([10]; CAM-resistant strain NO. 4): 0.1 µg/mL (≈ 0.271 µM); MIC [11, 17]: 0.1 µg/mL (≈ 0.271 µM); MIC [11, 18]: 0.1 µg/mL (≈ 0.271 µM); MIC [11, 19]: 0.1 µg/mL (≈ 0.271 µM); MIC ([11]; Standard strain ATCC 43504): 0.1 µg/mL (≈ 0.271 µM); MIC ([11]; Standard strain ATCC 43570): 0.1 µg/mL (≈ 0.271 µM); MIC ([11]; Standard strain ATCC 43629): 0.1 µg/mL (≈ 0.271 µM); Gastric acid secretion inhibiting action: Amount of gastric acid [12]: 44%; Gastric acid secretion inhibiting action: Amount of gastric acid secretion [12]: 70%; Gastric acid secretion inhibiting action: Total acidity [12]: 44%
